Measurements reported in PubChem BioAssay (NCI).
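Where inhibition never reached the appropriate level, the endpoint shown equals the highest concentration tested. Otherwise, values were interpolated linearly from a five-concentration, 48-hour dose response in 96-well plates. TGI: concentration producing complete growth inhibition.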

Tests used:
Test in all cases: NCI tumour cell line growth inhibition, 48 h
KM12 colon = tested on: KM12 colon
LXFL 529 NSCLC = tested on: LXFL 529 NSCLC
NCI-H23 lung = tested on: NCI-H23 lung
DMS 273 small cell lung = tested on: DMS 273 small cell lung
SNB-19 CNS = tested on: SNB-19 CNS
HL-60(TB) leukemia = tested on: HL-60(TB) leukemia
A498 renal = tested on: A498 renal
MCF7 breast = tested on: MCF7 breast
SF-268 CNS = tested on: SF-268 CNS
OVCAR-3 ovarian = tested on: OVCAR-3 ovarian
UACC-257 melanoma = tested on: UACC-257 melanoma
NCI/ADR-RES ovarian = tested on: NCI/ADR-RES ovarian
MDA-N = tested on: MDA-N
M14 melanoma = tested on: M14 melanoma
SK-MEL-28 melanoma = tested on: SK-MEL-28 melanoma
OVCAR-8 ovarian = tested on: OVCAR-8 ovarian
OVCAR-5 ovarian = tested on: OVCAR-5 ovarian
DMS 114 small cell lung = tested on: DMS 114 small cell lung
SF-539 CNS = tested on: SF-539 CNS
DLD-1 colon = tested on: DLD-1 colon
KM20L2 colon = tested on: KM20L2 colon
SNB-75 CNS = tested on: SNB-75 CNS
SK-MEL-2 melanoma = tested on: SK-MEL-2 melanoma
SF-295 CNS = tested on: SF-295 CNS
COLO 205 colon = tested on: COLO 205 colon
BT-549 breast = tested on: BT-549 breast
K-562 leukemia = tested on: K-562 leukemia
UACC-62 melanoma = tested on: UACC-62 melanoma
HCT-116 colon = tested on: HCT-116 colon
HS 578T breast = tested on: HS 578T breast
U251 CNS = tested on: U251 CNS
NCI-H522 lung = tested on: NCI-H522 lung
OVCAR-4 ovarian = tested on: OVCAR-4 ovarian
ACHN renal = tested on: ACHN renal
HCT-15 colon = tested on: HCT-15 colon
SK-MEL-5 melanoma = tested on: SK-MEL-5 melanoma
SR leukemia = tested on: SR leukemia
SN12C renal = tested on: SN12C renal
786-0 renal = tested on: 786-0 renal
UO-31 renal = tested on: UO-31 renal
SNB-78 CNS = tested on: SNB-78 CNS
RXF 393 renal = tested on: RXF 393 renal
A549 NSCLC = tested on: A549 NSCLC
CCRF-CEM leukemia = tested on: CCRF-CEM leukemia
IGROV1 ovarian = tested on: IGROV1 ovarian
PC-3 prostate = tested on: PC-3 prostate
CAKI-1 renal = tested on: CAKI-1 renal
EKVX NSCLC = tested on: EKVX NSCLC
NCI-H460 lung = tested on: NCI-H460 lung
MALME-3M melanoma = tested on: MALME-3M melanoma
LOX IMVI melanoma = tested on: LOX IMVI melanoma
MDA-MB-435 = tested on: MDA-MB-435
HT29 colon = tested on: HT29 colon
SK-OV-3 ovarian = tested on: SK-OV-3 ovarian
DU-145 prostate = tested on: DU-145 prostate
SW-620 colon = tested on: SW-620 colon
TK-10 renal = tested on: TK-10 renal
MOLT-4 leukemia = tested on: MOLT-4 leukemia
NCI-H226 lung = tested on: NCI-H226 lung
T-47D breast = tested on: T-47D breast
RPMI-8226 leukemia = tested on: RPMI-8226 leukemia
HOP-62 NSCLC = tested on: HOP-62 NSCLC
HCC-2998 colon = tested on: HCC-2998 colon
HOP-92 NSCLC = tested on: HOP-92 NSCLC
HOP-18 NSCLC = tested on: HOP-18 NSCLC
M19-MEL melanoma = tested on: M19-MEL melanoma

SMILES: CC(NC(=O)/C(C#N)=C/c1ccc2[nH]ccc2c1)c1ccccc1 (stereo not drawn)
- TGI (KM12 colon): 32.2 µM
- TGI (LXFL 529 NSCLC): 41.4 µM
- TGI (NCI-H23 lung): 43.3 µM
- TGI (DMS 273 small cell lung): 40.7 µM
- TGI (SNB-19 CNS): 45.1 µM
- TGI (HL-60(TB) leukemia): 54.8 µM
- TGI (A498 renal): 32.1 µM
- TGI (MCF7 breast): 56 µM
- TGI (SF-268 CNS): 42.6 µM
- TGI (OVCAR-3 ovarian): 58 µM
- TGI (UACC-257 melanoma): 38.7 µM
- TGI (NCI/ADR-RES ovarian): > 100 µM
- TGI (MDA-N): 31.4 µM
- TGI (M14 melanoma): 37.2 µM
- TGI (SK-MEL-28 melanoma): 36.9 µM
- TGI (OVCAR-8 ovarian): 48.8 µM
- TGI (OVCAR-5 ovarian): 37.3 µM
- TGI (DMS 114 small cell lung): 37.6 µM
- TGI (SF-539 CNS): 34.9 µM
- TGI (DLD-1 colon): 34.5 µM
- TGI (KM20L2 colon): 33.2 µM
- TGI (SNB-75 CNS): 60.5 µM
- TGI (SK-MEL-2 melanoma): 39.9 µM
- TGI (SF-295 CNS): 35.4 µM
- TGI (COLO 205 colon): 30.7 µM
- TGI (BT-549 breast): 23.5 µM
- TGI (K-562 leukemia): > 77.9 µM
- TGI (UACC-62 melanoma): 31.8 µM
- TGI (HCT-116 colon): 28.1 µM
- TGI (HS 578T breast): 66.4 µM
- TGI (U251 CNS): 29.4 µM
- TGI (NCI-H522 lung): 25.7 µM
- TGI (OVCAR-4 ovarian): 49.5 µM
- TGI (ACHN renal): > 64.9 µM
- TGI (HCT-15 colon): 27.6 µM
- TGI (SK-MEL-5 melanoma): 33 µM
- TGI (SR leukemia): 83.7 µM
- TGI (SN12C renal): 35 µM
- TGI (786-0 renal): 31.8 µM
- TGI (UO-31 renal): 28.3 µM
- TGI (SNB-78 CNS): 90.4 µM
- TGI (RXF 393 renal): 34.5 µM
- TGI (A549 NSCLC): 55.4 µM
- TGI (CCRF-CEM leukemia): 45.8 µM
- TGI (IGROV1 ovarian): 33.1 µM
- TGI (PC-3 prostate): 39.3 µM
- TGI (CAKI-1 renal): 66 µM
- TGI (EKVX NSCLC): 50.4 µM
- TGI (NCI-H460 lung): 34.9 µM
- TGI (MALME-3M melanoma): 71.2 µM
- TGI (LOX IMVI melanoma): 31.8 µM
- TGI (MDA-MB-435): 31.1 µM
- TGI (HT29 colon): 31.6 µM
- TGI (SK-OV-3 ovarian): 40.4 µM
- TGI (DU-145 prostate): 39.8 µM
- TGI (SW-620 colon): 33 µM
- TGI (TK-10 renal): 50.1 µM
- TGI (MOLT-4 leukemia): 52.3 µM
- TGI (NCI-H226 lung): 53.8 µM
- TGI (T-47D breast): 51 µM
- TGI (RPMI-8226 leukemia): > 73.1 µM
- TGI (HOP-62 NSCLC): 33.4 µM
- TGI (HCC-2998 colon): 34 µM
- TGI (HOP-92 NSCLC): 33.5 µM
- TGI (HOP-18 NSCLC): 53.3 µM

SMILES: COc1ccc(C2CCC(Cl)(OC)CC2C=O)cc1 (stereo not drawn)
- TGI (KM12 colon): > 100 µM
- TGI (LXFL 529 NSCLC): > 100 µM
- TGI (NCI-H23 lung): > 100 µM
- TGI (DMS 273 small cell lung): > 100 µM
- TGI (SNB-19 CNS): > 100 µM
- TGI (HL-60(TB) leukemia): > 100 µM
- TGI (A498 renal): > 100 µM
- TGI (SF-268 CNS): 97.3 µM
- TGI (OVCAR-3 ovarian): > 100 µM
- TGI (UACC-257 melanoma): > 100 µM
- TGI (M14 melanoma): > 100 µM
- TGI (SK-MEL-28 melanoma): > 100 µM
- TGI (OVCAR-8 ovarian): > 100 µM
- TGI (OVCAR-5 ovarian): > 100 µM
- TGI (DMS 114 small cell lung): 66.7 µM
- TGI (SF-539 CNS): > 100 µM
- TGI (DLD-1 colon): > 100 µM
- TGI (KM20L2 colon): > 100 µM
- TGI (SNB-75 CNS): > 100 µM
- TGI (SK-MEL-2 melanoma): > 100 µM
- TGI (SF-295 CNS): > 100 µM
- TGI (COLO 205 colon): > 100 µM
- TGI (K-562 leukemia): > 100 µM
- TGI (UACC-62 melanoma): > 100 µM
- TGI (HCT-116 colon): > 100 µM
- TGI (U251 CNS): > 100 µM
- TGI (NCI-H522 lung): > 100 µM
- TGI (OVCAR-4 ovarian): > 100 µM
- TGI (ACHN renal): > 100 µM
- TGI (HCT-15 colon): > 100 µM
- TGI (SK-MEL-5 melanoma): > 100 µM
- TGI (SR leukemia): > 100 µM
- TGI (SN12C renal): > 100 µM
- TGI (786-0 renal): > 100 µM
- TGI (UO-31 renal): > 100 µM
- TGI (RXF 393 renal): 43.9 µM
- TGI (A549 NSCLC): > 100 µM
- TGI (CCRF-CEM leukemia): > 100 µM
- TGI (IGROV1 ovarian): > 100 µM
- TGI (CAKI-1 renal): > 100 µM
- TGI (EKVX NSCLC): > 100 µM
- TGI (NCI-H460 lung): > 100 µM
- TGI (MALME-3M melanoma): > 100 µM
- TGI (LOX IMVI melanoma): 43.7 µM
- TGI (HT29 colon): > 100 µM
- TGI (SK-OV-3 ovarian): > 100 µM
- TGI (SW-620 colon): > 100 µM
- TGI (TK-10 renal): > 100 µM
- TGI (MOLT-4 leukemia): > 100 µM
- TGI (NCI-H226 lung): > 100 µM
- TGI (RPMI-8226 leukemia): > 100 µM
- TGI (HOP-62 NSCLC): > 100 µM
- TGI (HCC-2998 colon): > 100 µM
- TGI (HOP-92 NSCLC): > 100 µM
- TGI (M19-MEL melanoma): > 100 µM
- TGI (HOP-18 NSCLC): > 100 µM

SMILES: CCCCOP(=O)(OCCCC)/C(C#N)=C/c1ccco1
- TGI (KM12 colon): > 100 µM
- TGI (LXFL 529 NSCLC): > 100 µM
- TGI (NCI-H23 lung): > 100 µM
- TGI (SNB-19 CNS): > 100 µM
- TGI (HL-60(TB) leukemia): > 100 µM
- TGI (A498 renal): > 100 µM
- TGI (SF-268 CNS): > 100 µM
- TGI (OVCAR-3 ovarian): > 100 µM
- TGI (UACC-257 melanoma): > 100 µM
- TGI (M14 melanoma): > 100 µM
- TGI (SK-MEL-28 melanoma): > 100 µM
- TGI (OVCAR-5 ovarian): > 100 µM
- TGI (DMS 114 small cell lung): > 100 µM
- TGI (SF-539 CNS): > 100 µM
- TGI (KM20L2 colon): > 100 µM
- TGI (SNB-75 CNS): > 100 µM
- TGI (SK-MEL-2 melanoma): > 100 µM
- TGI (SF-295 CNS): > 100 µM
- TGI (COLO 205 colon): > 100 µM
- TGI (UACC-62 melanoma): > 100 µM
- TGI (HCT-116 colon): > 100 µM
- TGI (U251 CNS): > 100 µM
- TGI (OVCAR-4 ovarian): > 100 µM
- TGI (ACHN renal): > 100 µM
- TGI (UO-31 renal): > 100 µM
- TGI (SNB-78 CNS): > 100 µM
- TGI (RXF 393 renal): > 100 µM
- TGI (CCRF-CEM leukemia): > 100 µM
- TGI (IGROV1 ovarian): > 100 µM
- TGI (NCI-H460 lung): > 100 µM
- TGI (MALME-3M melanoma): > 100 µM
- TGI (HT29 colon): > 100 µM
- TGI (SK-OV-3 ovarian): > 100 µM
- TGI (RPMI-8226 leukemia): > 100 µM
- TGI (HOP-62 NSCLC): > 100 µM
- TGI (HOP-92 NSCLC): > 100 µM
- TGI (M19-MEL melanoma): > 100 µM
